Measurements: patent publication US5486541A (Teva Pharmaceutical Industries, Ltd., priority 1991, dated 1996)
“Also recorded” adds a separate entry of the source.

Columns and labels:
[1] = test system: blood pressure response to tyramine; assay: Tyramine Potentiation in Vivo (blood pressure response to tyramine); design: species or system rat; settings: compound 5 mg/kg orally; tyramine 20 mg/kg orally; ratio of areas under the curve of blood pressure
Method: On the previous day a tail artery cannulation was performed to enable direct blood pressure measurements. On the experimental day the cannulae were connected to pressure transducers. The animals were unrestrained and were kept in a glass sided open top tank during the pressure measurements. […] The desired compound was administered 30 minutes after the last dose of tyramine. Tyramine was administered again, in increasing doses, as described above, one hour after the desired compound was administered. […] The tyramine potentiating effect was calculated as a ratio between the areas under the curve of blood pressure measured with tyramine alone (20 mg/kg) and that measured after administration of the desired compounds and tyramine.

MAO-A [2] = biological target: T1, MAO-A (Rattus norvegicus, UniProt P21396); assay: biochemical; settings: rat brain homogenate; 20 min preincubation at 37° C.; 5-HT 1 mM; read-out: IC50 for Inhibition of MAO-A in Brain Homogenates
T1 sequence (P21396 1-526): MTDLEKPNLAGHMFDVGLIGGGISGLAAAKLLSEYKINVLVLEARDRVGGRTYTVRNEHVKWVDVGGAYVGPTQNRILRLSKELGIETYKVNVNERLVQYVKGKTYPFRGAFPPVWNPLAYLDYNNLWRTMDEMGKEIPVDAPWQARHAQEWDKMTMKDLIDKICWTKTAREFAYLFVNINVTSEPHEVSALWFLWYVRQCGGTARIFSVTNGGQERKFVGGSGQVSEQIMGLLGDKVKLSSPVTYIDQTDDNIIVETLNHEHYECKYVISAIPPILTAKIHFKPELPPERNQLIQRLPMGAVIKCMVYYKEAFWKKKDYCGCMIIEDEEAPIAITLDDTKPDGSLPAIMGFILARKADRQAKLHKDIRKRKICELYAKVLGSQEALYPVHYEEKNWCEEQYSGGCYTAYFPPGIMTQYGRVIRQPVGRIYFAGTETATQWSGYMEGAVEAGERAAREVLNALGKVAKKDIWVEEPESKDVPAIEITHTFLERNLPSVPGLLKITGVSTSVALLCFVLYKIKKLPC

MAO-B [3] = biological target: T2, MAO-B (Rattus norvegicus, UniProt P19643); assay: biochemical; assay type: biochemical; settings: rat brain homogenate
T2 sequence (P19643 1-520): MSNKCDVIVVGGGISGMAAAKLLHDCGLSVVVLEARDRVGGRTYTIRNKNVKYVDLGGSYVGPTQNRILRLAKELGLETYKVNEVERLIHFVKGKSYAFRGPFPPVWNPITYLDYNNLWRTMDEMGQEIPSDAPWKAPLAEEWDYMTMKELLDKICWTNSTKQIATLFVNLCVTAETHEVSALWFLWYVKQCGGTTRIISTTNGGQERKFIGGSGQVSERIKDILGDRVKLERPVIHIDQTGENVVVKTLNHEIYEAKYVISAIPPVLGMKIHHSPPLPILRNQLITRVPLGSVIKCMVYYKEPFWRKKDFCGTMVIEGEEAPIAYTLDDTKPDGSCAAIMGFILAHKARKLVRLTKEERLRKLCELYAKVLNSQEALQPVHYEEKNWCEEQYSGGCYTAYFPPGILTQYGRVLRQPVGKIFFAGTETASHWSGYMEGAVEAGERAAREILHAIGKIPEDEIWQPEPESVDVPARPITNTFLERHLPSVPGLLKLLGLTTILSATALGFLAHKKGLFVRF

MAO-B [4] = assay: Inhibition of MAO Activity Ex-vivo: Acute Treatment, liver, MAO-B; assay type: in vivo, rat (male Sprague-Dawley derived)
Method: (§1) These experiments were performed essentially according to the protocol of K. F. Tipton and M. B. H. Youdim in CIBA Symposium No. 39, Editors: G. E. W. Wolstenholme and J. Knight, Elsevier, Amsterdam, 1976, pp. 393-403. The MAO enzyme source was a homogenate of rat brain in 0.3M sucrose which was centrifuged at 600 g for 15 minutes. The supernatant was diluted appropriately in 0.05M phosphate buffer and preincubated with serial dilutions of compounds of interest which are listed below for 20 minutes at 37° C. ^14 C-labeled substrates (2-phenylethylamine, hereinafter PEA; 5-hydroxytryptamine, hereinafter 5-HT) were then added and the incubation continued for a further 20 minutes (PEA) or 30-45 minutes (5-HT). Substrate concentrations used were 20 μM (PEA) or 1 mM (5-HT). In the case of PEA the enzyme concentration was chosen so that not more than 10% of the substrate was metabolized during the course of the reaction. The reaction was then stopped by the addition of tranylcypromine (to final concentration of 1 mM) and the incubate filtered over a small column of Amberlite CG-50; buffered to pH 6.3. The column was washed with 1.5 ml water, the eluates pooled and the radioactive content determined by liquid scintillation spectrometry. Since the amine substrates are totally retained on the column, radioactivity in the eluate indicates the production of neutral and acidic metabolites formed as a result of MAO activity. Activity of MAO in the sample was expressed as a percentage of control activity in the absence of inhibitors after subtraction of appropriate blank values. The activity determined using PEA as a substrate is referred to as MAO B activity, and that determined using 5-HT as a substrate is referred to as MAO A activity.
(§2) Rats (male Sprague-Dawley derived) weighing 250±20 g were treated with the desired compound by intraperitoneal injection (ip) or oral gavage (po) and decapitated 2 hours later. Groups of three rats were used for each dose level of the compound and MAO activity was determined in the brain and liver using the general technique described above. The amount of protein in each incubation was determined using the Folin-Lowry method, and enzyme activity was calculated as nmol substrate metabolized per hour incubation for each mg protein. Activity of MAO in tissues from animals treated with inhibitors was expressed as a percentage of the enzyme activity in a group of control animals which were administered the vehicle alone (water in the case of oral gavage, or 0.9% saline in the case of intraperitoneal injection) and killed as above.

MAO-B [5] = assay: Inhibition of MAO Activity Ex-vivo: Acute Treatment, brain, MAO-B; assay type: in vivo, rat (male Sprague-Dawley derived)
MAO-A [6] = assay: Inhibition of MAO Activity Ex-vivo: Acute Treatment, liver, MAO-A; assay type: in vivo, rat (male Sprague-Dawley derived); settings: rat, ip or po, 2 hours after dosing
Method: as §1, §2

MAO-A [7] = assay: Inhibition of MAO Activity Ex-vivo: Acute Treatment, brain, MAO-A; assay type: in vivo, rat (male Sprague-Dawley derived); settings: rat, ip or po, 2 hours after dosing
Parkinson's patients = settings: with L-Dopa (and decarboxylase inhibitor); cited from earlier work
[8] = at doses causing nearly complete inhibition of MAO-B; Elsworth et al.; cited from earlier work

| Structure (SMILES) | Potentiation of blood pressure response to tyramine [1] [fold] | IC50 (MAO-A [2]) [nM] | IC50 (MAO-B [3]; 20 min preincubation at 37° C., PEA 20 μM, read-out: IC50 for Inhibition of MAO-B in Brain Homogenates) [nM] | Selectivity MAO-A/MAO-B (in vitro IC50) (MAO-B [3]; ratio IC50 MAO-A / IC50 MAO-B) | ED-50 LIVER MAO-B (MAO-B [4]; rat, ip or po, 2 hours after dosing, liver) [mg/kg] | LIVER MAO-A/MAO-B (measure of selectivity) (MAO-B [4]; ratio of ED-50 values, rat liver, ex vivo) | ED-50 BRAIN MAO-B (MAO-B [5]; rat, ip or po, 2 hours after dosing, brain) [mg/kg] | BRAIN MAO-A/MAO-B (measure of selectivity) (MAO-B [5]; ratio of ED-50 values, rat brain, ex vivo) | ED-50 LIVER MAO-A (MAO-A [6]) [mg/kg] | ED-50 BRAIN MAO-A (MAO-A [7]) [mg/kg] | clinical effect on addition to L-Dopa treatment (in words) (Parkinson's patients) | "cheese effect" of (-)-deprenyl (in words) [8] |
| --- | --- | --- | --- | --- | --- | --- | --- | --- | --- | --- | --- | --- |
| C#CCNC1CCc2c(F)cccc21.Cl (single isomer, unassigned; (+)) [(+)-4-F, (+)-4-Fluoro-N-propargyl-1-aminoindan hydrochloride] | 1.55 | 340 | 5.2 | 65 | 0.17 | > 5.9 | 0.33 | > 3 | > 1.0 | > 1.0 | – | – |
| C#CCN(C)[C@H](C)Cc1ccccc1 [(-)-deprenyl] | – | – | – | – | – | – | – | – | – | – | improvements in akinesia and overall functional capacity as well as the elimination of "on-off" type fluctuations; also recorded: enhances and prolongs the effect of L-Dopa | not causing the "cheese effect" |
